Columns and labels:
[1] = system: TDP-43(Q331K) mice; assay: Rotarod testing of TDP-43(Q331K) transgenic mice; assay type: in vivo, mouse
[2] = system: C. elegans expressing GFP-TDP-43(CTF) (C-terminal fragment of human TDP-43, aas 208-414) in the body wall muscle; assay: C. elegans lifespan assay, strain expressing TDP-43 C-terminal fragment; assay type: in vivo; conditions: 10 μg/ml in the NGM agar, vs DMSO vehicle, p<0.005
Source text: C-terminal fragments of TDP-43 are associated with pathology in ALS and FTD patients. In particular, proteolytic cleavage at Arg208 has been reported to generate a pathogenic C-terminal fragment (see Wang et al., 2013, J. Biol. Chem. 288(13):9049-57 and Igaz et al., 2009, J. Biol. Chem. 284(13):8516-24; the disclosures of which are incorporated herein by reference). Therefore, a transgenic C. elegans strain was generated that expresses the C-terminal fragment (CTF) of human TDP-43 (aas 208-414) in the body wall muscle, fused via a short linker region to the C-terminus of a GFP tag. Expression is under the control of the myo-3 promoter. […]
(§1) C. elegans cultures were synchronised by incubating an asynchronous culture in basic sodium hypochlorite solution to kill everything but the bleach-resistant mature eggs. […] From this point on, each ageing population was inspected daily and viability assessed by counting the number of dead worms.
(§2) The cumulative number of dead worms for each population was used to generate a survival/viability plot to determine chronological lifespan (CLS). Survival was analysed using the Kaplan-Meier log-rank survival analysis method, using the Online Application for Survival (OASIS; see http://sbi.postech.ac.kr/oasis). […]

[3] = system: control (GFP-expressing) C. elegans; assay: C. elegans lifespan assay, control strain expressing GFP only; assay type: in vivo; conditions: 10 μg/ml in the NGM agar, vs DMSO vehicle, p<0.01
Description: A control C. elegans strain was generated in the same background, in which the GFP reporter only is expressed under the control of the myo-3 promoter.
These strains were crossed with worms carrying a mutation in the bus-5 gene, which confers drug-sensitivity, to produce drug-sensitive strains expressing GFP alone (“GFP”) or expressing the GFP-TDP-43 CTF fusion protein (“GFP-TDP-43(CTF)”).
as §1, with “eggs. Approximately 300 eggs were added on to agar plates and then allowed to hatch and develop (to produce approximately 200 worms) in the presence of the test compound (or vehicle) and bacterial food source.” for “eggs.”
as §2

[4] = system: TNF-α; assay: Blood TNF-α levels in healthy human volunteers; assay type: in vivo
Description: (§3) A hard gelatine capsule was filled with the following composition:
(§4) One capsule as above containing 0.3 mg tacrolimus was administered daily to healthy human volunteers for three successive days. […] Similarly, no change in TNF-α levels occurred as a result of administering 0.6 mg daily of tacrolimus to healthy volunteers. The average trough level of tacrolimus (level after 24 hours of administration of each dose) observed was approximately 220 pg/mL.

[5] = Tacrolimus blood levels in healthy human volunteers after capsule; assay type: in vivo
Description: as §3, §4

[6] = in vivo, 2 mg/kg/day
Description: Based on pharmacokinetic analysis, a tacrolimus dose of 2 mg/kg/day in the mouse is believed to correspond to a human oral dose of about 0.33-0.44 mg/day oral for a 70 kg person.

Row | SMILES | rotarod latency / decline in motor function ([1]; 10 mg/kg p.o. per day in water, up to 60 weeks, vs water-treated control) | lifespan (survival) of worms expressing the TDP-43 C-terminal fragment [2] | lifespan (survival) of worms expressing the TDP-43 C-terminal fragment ([2]; listed as Tacrolimus) | lifespan (survival) of control GFP-expressing worms [3] | lifespan (survival) of control GFP-expressing worms ([3]; listed as Tacrolimus) | rotarod latency / decline in motor function ([1]; 0.25 mg/kg per day p.o., 60 weeks from 3 weeks of age, vs vehicle) | rotarod latency / decline in motor function ([1]; 0.25 mg/kg per day p.o., 60 weeks from 3 weeks of age, vs vehicle, listed as Tacrolimus) | rotarod latency / decline in motor function ([1]; 1.25 mg/kg per day p.o., 60 weeks from 3 weeks of age, vs vehicle) | rotarod latency / decline in motor function ([1]; 1.25 mg/kg per day p.o., 60 weeks from 3 weeks of age, vs vehicle, listed as Tacrolimus) | rotarod latency / decline in motor function ([1]; 2.5 mg/kg per day p.o., 60 weeks from 3 weeks of age, vs vehicle) | rotarod latency / decline in motor function ([1]; 2.5 mg/kg per day p.o., 60 weeks from 3 weeks of age, vs vehicle, listed as Tacrolimus) | change in blood TNF-α levels ([4]; 0.3 mg capsule daily for three successive days) | change in TNF-α levels ([4]; 0.6 mg daily) | average peak level ([5]; 0.3 mg capsule daily for three days, healthy volunteers) | expected trough level ([5]; two capsules simultaneously, single dose of 0.6 mg) | human oral dose corresponding to the mouse dose [6] [mg/day]
1 | Nc1nc2ccc(OC(F)(F)F)cc2s1 [riluzole] | delays the progression of the decline in rotarod performance | – | – | – | – | – | – | – | – | – | – | – | – | – | – | –
2 | C=CC[C@@H]1/C=C(\C)C[C@H](C)C[C@H](OC)[C@H]2O[C@@](O)(C(=O)C(=O)N3CCCC[C@H]3C(=O)O[C@H](/C(C)=C/[C@@H]3CC[C@@H](O)[C@H](OC)C3)[C@H](C)[C@@H](O)CC1=O)[C@H](C)C[C@@H]2OC [tacrolimus] | – | partially rescuing the lifespan deficit | significant increase in lifespan | increasing the lifespan | significant increase in lifespan | delays the progression of motor decline | delays the progression of the decline in rotarod performance | delays the progression of motor decline | delays the progression of the decline in rotarod performance | delays the progression of motor decline | delays the progression of the decline in rotarod performance | No significant changes | no change | approximately 3700 pg/mL | about 440 pg/mL | 0.33 to 0.44
